Measured values taken from US8470828B2, “Anellated pyridine compounds” (Hoffmann-La Roche Inc., priority 2010, dated 2013).

Columns and labels:
[1] = target: human 5-HT2A receptor (Homo sapiens, UniProt P28223); test: Radioligand binding to cloned human 5-HT2A receptor expressed in HEK-293 EBNA cells ([3H]-ketanserin)
Protocol: HEK293 EBNA cells were transiently transfected with expression plasmids encoding for the human D2 or D3 or for the human 5-HT2A receptor, respectively. The cells were harvested 48 h post-transfection, washed three times with cold PBS and stored at −80° C. prior to use. The pellet was suspended in cold 50 mM Tris-HCl buffer comprising 10 mM EDTA (pH 7.4) and was homogenized with a Polytron (Kinematica A G, Basel, Switzerland) for 20-30 sec at 12.000 rpm. After centrifugation at 48.000×g for 30 min at 4° C., the pellet was resuspended in cold 10 mM Tris-HCl buffer comprising 0.1 mM EDTA (pH 7.4), homogenized, and centrifuged as above. This pellet was further resuspended in a smaller volume of ice cold 10 mM Tris-HCl buffer comprising 0.1 mM EDTA (pH 7.4) and homogenized with a Polytron for 20-30 sec at 12.000 rpm. The protein content of this homogenate was determined with the Bio-Rad (Bradford) Protein Assay (Biorad Laboratories GmbH, München, Germany) according to the instructions of the manufacturer using gamma globulin as the standard. This homogenate was stored at −80° C. in aliquots and thawed immediately prior to use.
Aliquots of membrane preparations were thawed at RT, resupended in assay buffer (D2, D3: 50 mM Tris-HCl, 120 mM NaCl, 5 mM MgCl2, 1 mM EDTA, 5 mM KCl, 1.5 mM CaCl2, pH=7.4; 5-HT2A: 50 mM Tris-HCl, 10 mM MgCl2, 1 mM EGTA, pH=7.4), homogenized with a Polytron for 20-30 sec at 12.000 rpm and adjusted to a final concentration of approximately 7.5 μg protein/well (D2, D3) and 15 μg protein/well (5-HT2A), respectively.
The binding affinity (Ki) of the compounds was determined using radioligand binding. Membranes were incubated in a total volume of 200 μl with a fixed concentration of radioligand (final concentration approximately 0.7 nM [^3H]-spiperone for D2, 0.5 nM [^3H]-spiperone for D3, and 1.1 nM [^3H]-ketanserin for 5-HT2A) and ten concentrations of test compound in ranging between 10 μM-0.1 nM for 1 h at RT. At the end of the incubation, the reaction mixtures were filtered on to unifilter 96-well white microplates with bonded GF/C filters (Packard BioScience, Zürich, Switzerland; preincubated for 1 h in 0.1% polyethylenimine (PEI) in assay buffer) with a Filtermate 196 harvester (Packard BioScience) and washed 3 times with cold assay buffer. The nonspecific binding was determined with equally composed reaction mixtures in the presence of 10 μM unlabelled spiperone. Per well 45 μl of Microscint 40 (Perkin Elmer, Schwerzenbach, Switzerland) was added, plates for sealed, shaken for 20 min and counted for 3 min on a Topcount Microplate Scintillation Counter (Can berra Packard S A, Zürich, Switzerland) with quenching correction.
The CPM value for each duplicate of a concentration of competing compound was averaged (y1), then the % specific binding was calculated according to the equation (((y1−non-specific)/(total binding−non-specific))×100). Graphs were plotted with the % specific binding using XLfit, a curve fitting program that iteratively plots the data using Levenberg-Marquardt algorithm. The single site competition analysis equation used was y=A+((B−A)/(1+((x/C)D))), where y is the % specific binding, A is the minimum y, B is the maximum y, C is the IC50, x is the log 10 of the concentration of the competing compound and D is the slope of the curve (the Hill Coefficient). […] The affinity constant (Ki) was calculated using the Cheng-Prusoff equation Ki=(IC50/1+([L]/Kd), where [L] is the concentration of radioligand and Kd is the dissociation constant of the radioligand at the receptor as determined by the saturation isotherm.

[2] = target: human D3 receptor (Homo sapiens, UniProt P35462); test: Radioligand binding to cloned human D3 receptor expressed in HEK-293 EBNA cells ([3H]-spiperone)
[3] = target: T1, human D2 receptor (Homo sapiens, UniProt P14416); test: Radioligand binding to cloned human D2 receptor expressed in HEK-293 EBNA cells ([3H]-spiperone); conditions: HEK293 EBNA cell membranes, approximately 0.7 nM [3H]-spiperone, 1 h at RT
T1 construct: expressed in transfected cells; host or cells: HEK293 EBNA cells, transient transfection; membrane preparation
T1 sequence (P14416 whole entry): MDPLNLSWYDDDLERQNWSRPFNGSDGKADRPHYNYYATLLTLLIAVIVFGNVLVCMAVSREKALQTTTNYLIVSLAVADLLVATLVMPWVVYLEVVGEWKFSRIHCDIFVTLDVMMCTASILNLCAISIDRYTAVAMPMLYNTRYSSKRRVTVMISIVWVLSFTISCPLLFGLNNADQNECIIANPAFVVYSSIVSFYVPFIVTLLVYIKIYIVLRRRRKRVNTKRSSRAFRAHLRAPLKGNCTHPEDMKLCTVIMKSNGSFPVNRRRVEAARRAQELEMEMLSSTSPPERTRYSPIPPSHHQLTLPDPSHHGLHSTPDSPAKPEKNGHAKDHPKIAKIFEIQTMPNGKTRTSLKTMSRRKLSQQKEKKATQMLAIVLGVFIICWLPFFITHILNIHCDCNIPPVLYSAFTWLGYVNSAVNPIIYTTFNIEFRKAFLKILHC

human 5-HT2A receptor, sequence (P28223 whole entry): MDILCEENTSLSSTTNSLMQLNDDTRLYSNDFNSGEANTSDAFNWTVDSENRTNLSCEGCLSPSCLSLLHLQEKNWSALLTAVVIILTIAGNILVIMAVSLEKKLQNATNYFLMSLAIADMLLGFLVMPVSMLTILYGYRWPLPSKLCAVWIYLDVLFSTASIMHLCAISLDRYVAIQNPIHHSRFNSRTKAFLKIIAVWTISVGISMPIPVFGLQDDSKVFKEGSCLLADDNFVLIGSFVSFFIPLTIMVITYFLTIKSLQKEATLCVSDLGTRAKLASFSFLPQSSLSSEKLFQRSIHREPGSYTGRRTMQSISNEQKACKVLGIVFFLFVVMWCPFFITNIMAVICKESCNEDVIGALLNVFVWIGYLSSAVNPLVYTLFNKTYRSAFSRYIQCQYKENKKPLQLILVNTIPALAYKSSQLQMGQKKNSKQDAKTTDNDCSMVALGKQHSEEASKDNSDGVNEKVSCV
human D3 receptor, sequence (P35462 whole entry): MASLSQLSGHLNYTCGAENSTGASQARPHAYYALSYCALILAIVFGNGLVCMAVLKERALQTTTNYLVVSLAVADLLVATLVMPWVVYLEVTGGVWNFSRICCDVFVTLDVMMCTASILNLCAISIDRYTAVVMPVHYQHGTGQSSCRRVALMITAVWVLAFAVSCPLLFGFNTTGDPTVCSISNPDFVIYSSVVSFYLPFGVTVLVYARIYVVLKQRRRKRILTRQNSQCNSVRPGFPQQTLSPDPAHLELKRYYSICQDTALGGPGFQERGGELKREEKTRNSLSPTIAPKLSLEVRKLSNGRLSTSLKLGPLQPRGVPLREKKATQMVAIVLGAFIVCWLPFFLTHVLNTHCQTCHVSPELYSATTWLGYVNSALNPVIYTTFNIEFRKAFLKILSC

SMILES	melting point [°C]	Ki [1] [µM]	Ki [2] [µM]	Ki [3] [µM]
O=C(Cc1noc2ccccc12)N[C@H]1CC[C@H](CCN2CCN(c3nccc4c3OCC4)CC2)CC1 [Example 75, trans-2-Benzo[d]isoxazol-3-yl-N-(4-{2-[4-(2,3-dihydro-furo[2,3-c]pyridin-7-yl)-piperazin-1-yl]-ethyl}-cyclohexyl)-acetamide]	211	0.0457	0.00628	0.628
CC(C)(C)Oc1ccc(C(=O)N[C@H]2CC[C@H](CCN3CCN(c4nccc5c4OCC5)CC3)CC2)cc1 [Example 76, trans-4-tert-Butoxy-N-(4-{2-[4-(2,3-dihydro-furo[2,3-c]pyridin-7-yl)-piperazin-1-yl]-ethyl}-cyclohexyl)-benzamide]	168.5	0.0443	0.0333	0.814
O=C(CCC(F)(F)F)N[C@H]1CC[C@H](CCN2CCN(c3nccc4c3OCC4)CC2)CC1 [Example 84, trans-N-(4-{2-[4-(2,3-Dihydro-furo[2,3-c]pyridin-7-yl)-piperazin-1-yl]-ethyl}-cyclohexyl)-4,4,4-trifluoro-butyramide]	204.5	0.112	0.0142	1.41
O=C(N[C@H]1CC[C@H](CCN2CCN(c3nccc4c3OCC4)CC2)CC1)C1CC1(F)F (stereo partly drawn) [Example 85, 2,2-Difluoro-cyclopropanecarboxylic acid trans-(4-{2-[4-(2,3-dihydro-furo[2,3-c]pyridin-7-yl)-piperazin-1-yl]-ethyl}-cyclohexyl)-amide]	227	0.0602	0.00989	0.616
CC#CC(=O)N[C@H]1CC[C@H](CCN2CCN(c3nccc4c3OCC4)CC2)CC1 [Example 86, But-2-ynoic acid trans-(4-{2-[4-(2,3-dihydro-furo[2,3-c]pyridin-7-yl)-piperazin-1-yl]-ethyl}-cyclohexyl)-amide]	176	0.0388	0.00733	0.434
C/C=C/CC(=O)N[C@H]1CC[C@H](CCN2CCN(c3nccc4c3OCC4)CC2)CC1 [Example 87, (E)-Pent-3-enoic acid trans-(4-{2-[4-(2,3-dihydro-furo[2,3-c]pyridin-7-yl)-piperazin-1-yl]-ethyl}-cyclohexyl)-amide]	170	0.0736	0.00664	0.939
CC(C)=CC(=O)N[C@H]1CC[C@H](CCN2CCN(c3nccc4c3OCC4)CC2)CC1 [Example 88, 3-Methyl-but-2-enoic acid trans-(4-{2-[4-(2,3-dihydro-furo[2,3-c]pyridin-7-yl)-piperazin-1-yl]-ethyl}-cyclohexyl)-amide]	183.5	0.0595	0.0094	0.201
CC(C)(C)CC(=O)N[C@H]1CC[C@H](CCN2CCN(c3nccc4c3OCC4)CC2)CC1 [Example 89, trans-N-(4-{2-[4-(2,3-Dihydro-furo[2,3-c]pyridin-7-yl)-piperazin-1-yl]-ethyl}-cyclohexyl)-3,3-dimethyl-butyramide]	193	0.0588	0.0151	0.435
CC(C)(C)C(=O)N[C@H]1CC[C@H](CCN2CCN(c3nccc4c3OCC4)CC2)CC1 [Example 90, trans-N-(4-{2-[4-(2,3-Dihydro-furo[2,3-c]pyridin-7-yl)-piperazin-1-yl]-ethyl}-cyclohexyl)-2,2-dimethyl-propionamide]	194.5	0.0489	0.0505	0.671
CO[C@H]1CC[C@H](CC(=O)N[C@H]2CC[C@H](CCN3CCN(c4nccc5c4OCC5)CC3)CC2)CC1 [Example 92, trans-N-(4-{2-[4-(2,3-Dihydro-furo[2,3-c]pyridin-7-yl)-piperazin-1-yl]-ethyl}-cyclohexyl)-trans-2-(4-methoxy-cyclohexyl)-acetamide]	188.5	0.0533	0.0122	1.75
CN(C)C(=O)N[C@H]1CC[C@H](CCN2CCN(c3nccc4c3OCC4)CC2)CC1 [Example 94, trans-3-(4-{2-[4-(2,3-Dihydro-furo[2,3-c]pyridin-7-yl)-piperazin-1-yl]-ethyl}-cyclohexyl)-1,1-dimethyl-urea]	217.5	0.135	0.082	0.429
O=S(=O)(N[C@H]1CC[C@H](CCN2CCN(c3nccc4c3OCC4)CC2)CC1)c1ccc(F)cc1 [Example 96, trans-N-(4-{2-[4-(2,3-Dihydro-furo[2,3-c]pyridin-7-yl)-piperazin-1-yl]-ethyl}-cyclohexyl)-4-fluoro-benzenesulfonamide]	148	0.204	0.00527	0.2

Stronger by Ki [1], values ahead:

melting point [°C]	Ki [1] [µM]	Ki [2] [µM]	Ki [3] [µM]	SMILES
235	0.0191	0.00761	0.27	O=C(N[C@H]1CC[C@H](CCN2CCN(c3nccc4c3OCC4)CC2)CC1)c1ccc(-c2cccnc2)cc1 [Example 71, trans-N-(4-{2-[4-(2,3-Dihydro-furo[2,3-c]pyridin-7-yl)-piperazin-1-yl]-ethyl}-cyclohexyl)-4-pyridin-3-yl-benzamide]
262.5	0.0246	0.0178	0.633	N#Cc1ccc(C(=O)N[C@H]2CC[C@H](CCN3CCN(c4nccc5c4OCC5)CC3)CC2)cc1 [Example 72, trans-4-Cyano-N-(4-{2-[4-(2,3-dihydro-furo[2,3-c]pyridin-7-yl)-piperazin-1-yl]-ethyl}-cyclohexyl)-benzamide]
231	0.0224	0.015	0.479	O=C(N[C@H]1CC[C@H](CCN2CCN(c3nccc4c3OCC4)CC2)CC1)c1ccc(N2CCOCC2)nc1 [Example 73, trans-N-(4-{2-[4-(2,3-Dihydro-furo[2,3-c]pyridin-7-yl)-piperazin-1-yl]-ethyl}-cyclohexyl)-6-morpholin-4-yl-nicotinamide]
260.5	0.0231	0.00947	0.145	O=C(N[C@H]1CC[C@H](CCN2CCN(c3nccc4c3OCC4)CC2)CC1)c1ccc(N2CCS(=O)(=O)CC2)cc1 [Example 74, trans-N-(4-{2-[4-(2,3-Dihydro-furo[2,3-c]pyridin-7-yl)-piperazin-1-yl]-ethyl}-cyclohexyl)-4-(1,1-dioxo-1λ6-thiomorpholin-4-yl)-benzamide]
211.5	0.0354	0.00944	0.432	O=C(N[C@H]1CC[C@H](CCN2CCN(c3nccc4c3OCC4)CC2)CC1)c1ccc2ncccc2c1 [Example 77, Quinoline-6-carboxylic acid trans-(4-{2-[4-(2,3-dihydro-furo[2,3-c]pyridin-7-yl)-piperazin-1-yl]-ethyl}-cyclohexyl)-amide]
200.5	0.0296	0.0425	0.67	O=C(N[C@H]1CC[C@H](CCN2CCN(c3nccc4c3OCC4)CC2)CC1)c1cnc(N2CCOCC2)cn1 [Example 78, 5-Morpholin-4-yl-pyrazine-2-carboxylic acid trans-(4-{2-[4-(2,3-dihydro-furo[2,3-c]pyridin-7-yl)-piperazin-1-yl]-ethyl}-cyclohexyl)-amide]
250	0.0157	0.0375	0.623	O=C(N[C@H]1CC[C@H](CCN2CCN(c3nccc4c3OCC4)CC2)CC1)C1(O)CCC1 [Example 79, 1-Hydroxy-cyclobutanecarboxylic acid trans-(4-{2-[4-(2,3-dihydro-furo[2,3-c]pyridin-7-yl)-piperazin-1-yl]-ethyl}-cyclohexyl)-amide]
212	0.019	0.0122	0.362	CS(=O)(=O)c1ccc(C(=O)N[C@H]2CC[C@H](CCN3CCN(c4nccc5c4OCC5)CC3)CC2)s1 [Example 81, 5-Methanesulfonyl-thiophene-2-carboxylic acid trans-(4-{2-[4-(2,3-dihydro-furo[2,3-c]pyridin-7-yl)-piperazin-1-yl]-ethyl}-cyclohexyl)-amide]
172.5	0.032	0.0186	0.481	C[C@]1(O)CC[C@H](C(=O)N[C@H]2CC[C@H](CCN3CCN(c4nccc5c4OCC5)CC3)CC2)CC1 [Example 91, trans-4-Hydroxy-4-methyl-cyclohexanecarboxylic acid trans-(4-{2-[4-(2,3-dihydro-furo[2,3-c]pyridin-7-yl)-piperazin-1-yl]-ethyl}-cyclohexyl)-amide]
219	0.0307	0.0384	0.832	C[C@]1(O)CC[C@@H](C(=O)N[C@H]2CC[C@H](CCN3CCN(c4nccc5c4OCC5)CC3)CC2)CC1 [Example 93, cis-4-Hydroxy-4-methyl-cyclohexanecarboxylic acid trans-(4-{2-[4-(2,3-dihydro-furo[2,3-c]pyridin-7-yl)-piperazin-1-yl]-ethyl}-cyclohexyl)-amide]
128	0.0311	0.0108	0.641	CN(C)S(=O)(=O)N[C@H]1CC[C@H](CCN2CCN(c3nccc4c3OCC4)CC2)CC1 [Example 95, N′-(trans-4-{2-[4-(2,3-Dihydro-furo[2,3-c]pyridin-7-yl)-piperazin-1-yl]-ethyl}cyclohexyl)-N,N-dimethylsulfamide]
175	0.0316	0.00488	0.42	O=C(CC1COC1)N[C@H]1CC[C@H](CCN2CCN(c3nccc4c3OCC4)CC2)CC1 [Example 98, trans-N-(4-{2-[4-(2,3-Dihydro-furo[2,3-c]pyridin-7-yl)-piperazin-1-yl]-ethyl}-cyclohexyl)-2-oxetan-3-yl-acetamide]
